# Results from patent publication US20240124427A1, “HYDROXYHETEROCYCLOALKANE-CARBAMOYL DERIVATIVES” (Idorsia Pharmaceuticals Ltd, priority 2021, published 2024).
# Target: human Gal-3 (hGal-3) (Homo sapiens (Human), UniProt P17931)
# Experiment: Competitive binding assay: biotinylated hGal-3 binding to microplate-adsorbed asialofetuin (ASF)
# Conditions: Activity on hGal-3; mean values of several measurements; mixture of diastereomers measured where not separated
# Summary of the method: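 Spectrophotometric read-out using streptavidin-peroxidase and ABTS quantifies how much biotin-hGal-3 remains bound to microplate asialofetuin after 3 h at 4 °C with compound present. Values are means of repeated IC50 determinations.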
# human Gal-3 (hGal-3), sequence (P17931 whole entry): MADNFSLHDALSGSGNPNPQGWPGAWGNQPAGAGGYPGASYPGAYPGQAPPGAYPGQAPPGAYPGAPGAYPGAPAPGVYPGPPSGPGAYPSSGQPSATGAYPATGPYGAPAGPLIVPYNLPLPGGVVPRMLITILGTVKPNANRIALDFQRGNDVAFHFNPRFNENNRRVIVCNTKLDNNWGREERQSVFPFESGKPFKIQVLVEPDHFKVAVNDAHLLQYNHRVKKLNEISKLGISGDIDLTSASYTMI
row,SMILES,IC50
1,"CO[C@@H]1[C@@H](n2cc(-c3ccc(C)c(F)c3F)nn2)[C@@H](O)[C@@H](CO)O[C@H]1C(=O)N(c1cc(Cl)cc(Cl)c1)[C@H]1COC[C@@H]1O [Example 19, (2R,3R,4S,5R,6R)-N-(3,5-dichlorophenyl)-4-(4-(2,3-difluoro-4-methylphenyl)-1H-1,2,3-triazol-1-yl)-5-hydroxy-6-(hydroxymethyl)-N-((3S,4R)-4-hydroxytetrahydrofuran-3-yl)-3-methoxytetrahydro-2H-pyran-2-carboxamide]",40 nM
2,"CO[C@@H]1[C@@H](n2cc(-c3cc(F)c(F)c(F)c3)nn2)[C@@H](O)[C@@H](CO)O[C@H]1C(=O)N(c1cc(C)cc(Br)c1)[C@H]1CNCC[C@@H]1O [Example 114, (2R,3R,4S,5R,6R)-N-(3-bromo-5-methylphenyl)-5-hydroxy-6-(hydroxymethyl)-N-((3S,4S)-4-hydroxypiperidin-3-yl)-3-methoxy-4-(4-(3,4,5-trifluorophenyl)-1H-1,2,3-triazol-1-yl)tetrahydro-2H-pyran-2-carboxamide]",9 nM
3,"CO[C@@H]1[C@@H](n2cc(-c3cc(F)c(F)c(F)c3)nn2)[C@@H](O)[C@@H](CO)O[C@H]1C(=O)N(c1cc(C)cc(Br)c1)[C@H]1CCOC[C@@H]1O [Example 102, (2R,3R,4S,5R,6R)-N-(3-bromo-5-methylphenyl)-5-hydroxy-6-(hydroxymethyl)-N-((3R,4S)-3-hydroxytetrahydro-2H-pyran-4-yl)-3-methoxy-4-(4-(3,4,5-trifluorophenyl)-1H-1,2,3-triazol-1-yl)tetrahydro-2H-pyran-2-carboxamide]",14 nM
4,"CO[C@@H]1[C@@H](n2cc(-c3cc(F)c(C)c(F)c3)nn2)[C@@H](O)[C@@H](CO)O[C@H]1C(=O)N(c1cc(C)cc(Br)c1)[C@@H]1COC[C@H]1O [Example 47, (2R,3R,4S,5R,6R)-N-(3-bromo-5-methylphenyl)-4-(4-(3,5-difluoro-4-methylphenyl)-1H-1,2,3-triazol-1-yl)-5-hydroxy-6-(hydroxymethyl)-N-((3R,4S)-4-hydroxytetrahydrofuran-3-yl)-3-methoxytetrahydro-2H-pyran-2-carboxamide]",72 nM
5,"CO[C@@H]1[C@@H](n2cc(-c3ccc(Cl)c(Cl)c3)nn2)[C@@H](O)[C@@H](CO)O[C@H]1C(=O)N(c1cc(Br)cc(Br)c1)[C@@H]1COC[C@H]1O [Example 56, (2R,3R,4S,5R,6R)-N-(3,5-dibromophenyl)-4-(4-(3,4-dichlorophenyl)-1H-1,2,3-triazol-1-yl)-5-hydroxy-6-(hydroxymethyl)-N-((3R,4S)-4-hydroxytetrahydrofuran-3-yl)-3-methoxytetrahydro-2H-pyran-2-carboxamide]",222 nM
6,"CO[C@@H]1[C@@H](n2cc(-c3cc(F)c(F)c(F)c3)nn2)[C@@H](O)[C@@H](CO)O[C@H]1C(=O)N(c1cc(C)cc(Br)c1)[C@H]1COCC[C@@H]1O [Example 106, (2R,3R,4S,5R,6R)-N-(3-bromo-5-methylphenyl)-5-hydroxy-6-(hydroxymethyl)-N-((3S,4S)-4-hydroxytetrahydro-2H-pyran-3-yl)-3-methoxy-4-(4-(3,4,5-trifluorophenyl)-1H-1,2,3-triazol-1-yl)tetrahydro-2H-pyran-2-carboxamide]",13 nM
7,"CO[C@@H]1[C@@H](n2cc(-c3cc(F)c(F)c(F)c3)nn2)[C@@H](O)[C@@H](CO)O[C@H]1C(=O)N(c1cccc(Cl)c1)[C@@H]1COC[C@H]1O [Example 30, (2R,3R,4S,5R,6R)-N-(3-chlorophenyl)-5-hydroxy-6-(hydroxymethyl)-N-((3R,4S)-4-hydroxytetrahydrofuran-3-yl)-3-methoxy-4-(4-(3,4,5-trifluorophenyl)-1H-1,2,3-triazol-1-yl)tetrahydro-2H-pyran-2-carboxamide]",235 nM
8,"CO[C@@H]1[C@@H](n2cc(-c3ccc(Br)c(F)c3F)nn2)[C@@H](O)[C@@H](CO)O[C@H]1C(=O)N(c1cc(Cl)cc(Cl)c1)[C@H]1CN(C(C)=O)C[C@@H]1O [Example 73, (2R,3R,4S,5R,6R)-N-((3S,4S)-1-acetyl-4-hydroxypyrrolidin-3-yl)-4-(4-(4-bromo-2,3-difluorophenyl)-1H-1,2,3-triazol-1-yl)-N-(3,5-dichlorophenyl)-5-hydroxy-6-(hydroxymethyl)-3-methoxytetrahydro-2H-pyran-2-carboxamide]",23 nM
9,"CO[C@@H]1[C@@H](n2cc(-c3cc(F)c(F)c(F)c3)nn2)[C@@H](O)[C@@H](CO)O[C@H]1C(=O)N(c1cc(Cl)cc(Cl)c1)[C@@H]1CN(C(C)=O)C[C@H]1O [Example 77, (2R,3R,4S,5R,6R)-N-((3R,4R)-1-acetyl-4-hydroxypyrrolidin-3-yl)-N-(3,5-dichlorophenyl)-5-hydroxy-6-(hydroxymethyl)-3-methoxy-4-(4-(3,4,5-trifluorophenyl)-1H-1,2,3-triazol-1-yl)tetrahydro-2H-pyran-2-carboxamide]",80 nM
10,"CO[C@@H]1[C@@H](n2cc(-c3cc(F)c(F)c(F)c3)nn2)[C@@H](O)[C@@H](CO)O[C@H]1C(=O)N(c1cc(C)cc(Br)c1)[C@H]1CN(C=O)C[C@@H]1O [Example 90, (2R,3R,4S,5R,6R)-N-(3-bromo-5-methylphenyl)-N-((3S,4S)-1-formyl-4-hydroxypyrrolidin-3-yl)-5-hydroxy-6-(hydroxymethyl)-3-methoxy-4-(4-(3,4,5-trifluorophenyl)-1H-1,2,3-triazol-1-yl)tetrahydro-2H-pyran-2-carboxamide]",20 nM
11,"CO[C@@H]1[C@@H](n2cc(-c3cc(F)c(F)c(F)c3)nn2)[C@@H](O)[C@@H](CO)O[C@H]1C(=O)N(c1cc(F)cc(C#N)c1)[C@@H]1COC[C@H]1O [Example 40, (2R,3R,4S,5R,6R)-N-(3-cyano-5-fluorophenyl)-5-hydroxy-6-(hydroxymethyl)-N-((3R,4S)-4-hydroxytetrahydrofuran-3-yl)-3-methoxy-4-(4-(3,4,5-trifluorophenyl)-1H-1,2,3-triazol-1-yl)tetrahydro-2H-pyran-2-carboxamide]",145 nM
12,"CO[C@@H]1[C@@H](n2cc(-c3cc(F)c(F)c(F)c3)nn2)[C@@H](O)[C@@H](CO)O[C@H]1C(=O)N(c1cc(Br)cc(C#N)c1)[C@H]1CN(C=O)C[C@@H]1O [Example 89, (2R,3R,4S,5R,6R)-N-(3-bromo-5-cyanophenyl)-N-((3S,4S)-1-formyl-4-hydroxypyrrolidin-3-yl)-5-hydroxy-6-(hydroxymethyl)-3-methoxy-4-(4-(3,4,5-trifluorophenyl)-1H-1,2,3-triazol-1-yl)tetrahydro-2H-pyran-2-carboxamide]",38 nM
13,"CO[C@@H]1[C@@H](n2cc(-c3cc(F)c(F)c(F)c3)nn2)[C@@H](O)[C@@H](CO)O[C@H]1C(=O)N(c1cc(C)cc(Br)c1)[C@H]1COC[C@@H]1O [Example 8, (2R,3R,4S,5R,6R)-N-(3-bromo-5-methylphenyl)-5-hydroxy-6-(hydroxymethyl)-N-((3S,4R)-4-hydroxytetrahydrofuran-3-yl)-3-methoxy-4-(4-(3,4,5-trifluorophenyl)-1H-1,2,3-triazol-1-yl)tetrahydro-2H-pyran-2-carboxamide]",77 nM
14,"CO[C@@H]1[C@@H](n2cc(-c3cc(F)c(C)c(F)c3)nn2)[C@@H](O)[C@@H](CO)O[C@H]1C(=O)N(c1cc(Br)cc(Br)c1)[C@H]1CN(C(C)=O)C[C@@H]1O [Example 74, (2R,3R,4S,5R,6R)-N-((3S,4S)-1-acetyl-4-hydroxypyrrolidin-3-yl)-N-(3,5-dibromophenyl)-4-(4-(3,5-difluoro-4-methylphenyl)-1H-1,2,3-triazol-1-yl)-5-hydroxy-6-(hydroxymethyl)-3-methoxytetrahydro-2H-pyran-2-carboxamide]",27 nM
15,"CO[C@@H]1[C@@H](n2cc(-c3cc(F)c(F)c(F)c3)nn2)[C@@H](O)[C@@H](CO)O[C@H]1C(=O)N(c1cc(C)cc(C#N)c1)[C@@H]1COC[C@H]1O [Example 39, (2R,3R,4S,5R,6R)-N-(3-cyano-5-methylphenyl)-5-hydroxy-6-(hydroxymethyl)-N-((3R,4S)-4-hydroxytetrahydrofuran-3-yl)-3-methoxy-4-(4-(3,4,5-trifluorophenyl)-1H-1,2,3-triazol-1-yl)tetrahydro-2H-pyran-2-carboxamide]",69 nM
16,"CO[C@@H]1[C@@H](n2cc(-c3cc(F)c(F)c(F)c3)nn2)[C@@H](O)[C@@H](CO)O[C@H]1C(=O)N(c1cc(Cl)cc(Cl)c1)[C@H]1CN(C(C)=O)C[C@@H]1O [Example 71, (2R,3R,4S,5R,6R)-N-((3S,4S)-1-acetyl-4-hydroxypyrrolidin-3-yl)-N-(3,5-dichlorophenyl)-5-hydroxy-6-(hydroxymethyl)-3-methoxy-4-(4-(3,4,5-trifluorophenyl)-1H-1,2,3-triazol-1-yl)tetrahydro-2H-pyran-2-carboxamide]",36 nM
17,"CO[C@@H]1[C@@H](n2cc(-c3cc(F)c(F)c(F)c3)nn2)[C@@H](O)[C@@H](CO)O[C@H]1C(=O)N(c1cc(Br)cc(C#N)c1)[C@@H]1CNC[C@H]1O [Example 67, (2R,3R,4S,5R,6R)-N-(3-bromo-5-cyanophenyl)-5-hydroxy-6-(hydroxymethyl)-N-((3R,4R)-4-hydroxypyrrolidin-3-yl)-3-methoxy-4-(4-(3,4,5-trifluorophenyl)-1H-1,2,3-triazol-1-yl)tetrahydro-2H-pyran-2-carboxamide]",129 nM
18,"COc1cc(C#N)cc(N(C(=O)[C@@H]2O[C@H](CO)[C@H](O)[C@H](n3cc(-c4cc(F)c(F)c(F)c4)nn3)[C@H]2OC)[C@@H]2COC[C@H]2O)c1 [Example 38, (2R,3R,4S,5R,6R)-N-(3-cyano-5-methoxyphenyl)-5-hydroxy-6-(hydroxymethyl)-N-((3R,4S)-4-hydroxytetrahydrofuran-3-yl)-3-methoxy-4-(4-(3,4,5-trifluorophenyl)-1H-1,2,3-triazol-1-yl)tetrahydro-2H-pyran-2-carboxamide]",113 nM
19,"CO[C@@H]1[C@@H](n2cc(-c3cc(F)c(F)c(F)c3)nn2)[C@@H](O)[C@@H](CO)O[C@H]1C(=O)N(c1cccc(Cl)c1)[C@H]1COC[C@@H]1O [Example 1, (2R,3R,4S,5R,6R)-N-(3-chlorophenyl)-5-hydroxy-6-(hydroxymethyl)-N-((3S,4R)-4-hydroxytetrahydrofuran-3-yl)-3-methoxy-4-(4-(3,4,5-trifluorophenyl)-1H-1,2,3-triazol-1-yl)tetrahydro-2H-pyran-2-carboxamide]",102 nM
